# Laboratory results published in US6037348A (priority 1997, dated 2000).
# Where two headings read alike, the source gives them in different places.
# Key:
# [1] = tested on: influenza A/Kawasaki (A/KAW H1N1); experiment: Antiviral plaque assay, A/KAW H1N1; settings: MDCK cells
# Experimental: (§1) The in vitro anti-influenza activities of COMPOUND A, COMPOUND B, COMPOUND C and amantadine were evaluated using a standard plaque assay such as described in Hayden et al., Antimicrob. Agents Chemother., vol. 17, pages 865-870, (1980), herein incorporated by reference. In this assay, influenza virus-infected Madin Darby canine kidney (MDCK) cells were untreated or treated with serial dilutions of each compound. The concentration of compound required to inhibit viral plaque formation by 50% (IC50) was determined from the linear regression line of the plot of compound concentration versus percent inhibition of plaque formation. In addition, the IC50 can be determined by the method of Reed and Muench, Am. J. Hyg, vol. 27, 493-497 (1938) which is herein incorporated by reference.
# [2] = tested on: A/NWS H1N1; experiment: Antiviral plaque assay, A/NWS H1N1; settings: MDCK cells
# Experimental: as §1
# [3] = tested on: A/FM/1/47 H1N1; experiment: Antiviral plaque assay, A/FM/1/47 H1N1; settings: MDCK cells
# Experimental: as §1
# [4] = tested on: A/AA H2N2; experiment: microbe, parasite or virus in culture; settings: H2N2, MDCK
# [5] = tested on: A/AICHI H3N2; experiment: Antiviral plaque assay, A/AICHI H3N2; settings: MDCK cells
# Experimental: as §1
# [6] = tested on: B/Lee; experiment: Antiviral plaque assay, B/Lee; format: cell-based; settings: Influenza B virus, MDCK cells
# Experimental: as §1
# [7] = tested on: B/Maryland; experiment: Antiviral plaque assay, B/Maryland; format: cell-based; settings: Influenza B virus, MDCK cells
# Experimental: as §1
# [8] = tested on: B/GL; experiment: Antiviral plaque assay, B/GL; format: cell-based; settings: Influenza B virus, MDCK cells
# Experimental: as §1
# [9] = tested on: M2 ion channel; settings: influenza A; cited from earlier work
# [10] = tested on: HA of A/Kawasaki/86
# [11] = tested on: HA of A/WSN/33
# [12] = tested on: infectious virions; parameters: species or system influenza virus
# [13] = tested on: BVDV; experiment: microbe, parasite or virus in culture; format: cell-based, bovine diarrheal virus (BVDV); settings: Bovine viral diarrhea virus isolates and strains, MDBK, in Bos taurus
# [14] = tested on: influenza A/WSN/33
# [15] = in vitro; settings: bovine, mdbk cells
# [16] = read-out: IC50 (virus replication inhibited by 50%)
Structure (SMILES),IC50 [1],IC50 [2],IC50 [3],IC50 [4],IC50 [5],IC50 [6],IC50 [7],IC50 [8],IC50 ([13]; read-out: IC50),"IC50 [13, 16]",CC50 [15],also measured
"NC12CC3CC(CC(C3)C1)C2 [Amantadine, amantadine, reference compound]",0.036 µg/mL,> 10 µg/mL,0.13 µg/mL,0.037 µg/mL,0.076 µg/mL,> 10 µg/mL,> 10 µg/mL,> 10 µg/mL,–,–,–,function of the M2 ion channel activity [9]: inhibiting the function of the M2 ion channel activity
COC(=O)[C@@]1(C)CCC[C@]2(C)c3cc(OC)ccc3C(=O)C[C@@H]12 [COMPOUND A],< 0.032 µg/mL,> 10 µg/mL,< 0.032 µg/mL,< 0.032 µg/mL,~10 µg/mL,~1.23 µg/mL,~2.7 µg/mL,5.65 µg/mL,13.5 µg/mL,3.56 µg/mL,51.8 µg/mL,effect on expression of HA on the infected cell surface (erythrocyte binding) [10]: no effect; low pH-induced fusion of MDCK cells with human erythrocytes ([10]; pH 4.8): inhibition of the low pH-induced fusion; effect on fusion of human erythrocytes with A/WSN/33-infected MDCK cells [11]: no effect; antiviral activity after pre-incubation with infectious virions [12]: inactive; IC50 ([13]; read-out: concentration inhibiting replication by 50%): 3.5 µg/mL; IC90 ([13]; read-out: concentration inhibiting replication by 90%): 13.4 µg/mL; susceptibility of A/WSN/33 [14]: naturally resistant
O=C(NCC(c1ccccc1)c1ccncc1)Nc1ccccc1Cl (centres unmarked) [COMPOUND B],0.024 µg/mL,~9.59 µg/mL,0.18 µg/mL,0.15 µg/mL,~7.26 µg/mL,~1.08 µg/mL,~2.23 µg/mL,2.83 µg/mL,–,–,–,–
O=C(O)CCC1(c2ccccc2)CCCCC1 [COMPOUND C],0.07 µg/mL,> 10 µg/mL,0.15 µg/mL,0.069 µg/mL,~10 µg/mL,> 10 µg/mL,6.34 µg/mL,> 10 µg/mL,–,–,–,–
COC(=O)C1(C)CCCC2(C)c3ccc(O)cc3C(=O)CC12 (centres unmarked) [Compound I],–,–,–,–,–,–,–,–,16 µg/mL,4.94 µg/mL,32 µg/mL,–
COC(=O)[C@@]1(C)CCC[C@@]2(C)C1=CC(=NO)c1ccc(OC)cc12 [J],–,–,–,–,–,–,–,–,8.9 µg/mL,5.25 µg/mL,30.8 µg/mL,–
COC(=O)C1(C)CCCC2(C)c3ccccc3C(=O)CC12 (centres unmarked) [K],–,–,–,–,–,–,–,–,51 µg/mL,15 µg/mL,> 100 µg/mL,–
CC(N)C12CC3CC(CC(C3)C1)C2 (centres unmarked) [rimantadine],–,–,–,–,–,–,–,–,–,–,–,function of the M2 ion channel activity [9]: inhibiting the function of the M2 ion channel activity
